According to ChEMBL document CHEMBL1201862, “PubChem BioAssay data set” (2004):
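Compound exposure: 48 hours, 5 concentrations, 96-well plates. GI50 is the concentration that inhibits growth by half.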 The source made the active and inactive calls. No stated cut-off is given here; in the data, active = GI50 up to about 1.1 µM and inactive = higher.

How the values were obtained:
Assay in all cases: DTP human tumour cell line panel, 48 h
[1] = test system: SW-620
[2] = test system: SN12C
[3] = test system: MCF7
[4] = test system: UACC-257
[5] = test system: MOLT-4
[6] = test system: SF-295
[7] = test system: OVCAR-5
[8] = test system: NCI-H460
[9] = test system: K562
[10] = test system: A549
[11] = test system: CAKI-1
[12] = test system: A498
[13] = test system: 786-0
[14] = test system: DU-145
[15] = test system: SF-268
[16] = test system: U-251
[17] = test system: HOP-92
[18] = test system: SNB-19
[19] = test system: HCT-116
[20] = test system: UO-31
[21] = test system: SK-MEL-2
[22] = test system: MDA-MB-435
[23] = test system: ACHN
[24] = test system: MDA-MB-231
[25] = test system: Hs-578T
[26] = test system: EKVX
[27] = test system: HCT-15
[28] = test system: OVCAR-3
[29] = test system: SR
[30] = test system: OVCAR-4
[31] = test system: UACC-62
[32] = test system: MDA-N
[33] = test system: Malme-3M
[34] = test system: NCI/ADR-RES
[35] = test system: NCI-H522
[36] = test system: NCI-H226
[37] = test system: IGROV-1
[38] = test system: HOP-62
[39] = test system: SK-OV-3
[40] = test system: BT-549
[41] = test system: CCRF-CEM
[42] = test system: RPMI-8226
[43] = test system: RXF 393
[44] = test system: HL-60
[45] = test system: SNB-75
[46] = test system: LOX IMVI
[47] = test system: SK-MEL-28
[48] = test system: NCI-H23
[49] = test system: T47D
[50] = test system: M14
[51] = test system: COLO 205
[52] = test system: HCC 2998
[53] = test system: SK-MEL-5
[54] = test system: SF-539
[55] = test system: OVCAR-8
[56] = test system: HT-29
[57] = test system: KM12
[58] = test system: PC-3
[59] = test system: TK-10

SMILES: COc1cc(/C=N/c2ccccn2)cc(OC)c1OC
- GI50 [1]: > 100 µM (inactive)
- GI50 [2]: > 100 µM (inactive)
- GI50 [3]: 54.5 µM (inactive)
- GI50 [4]: > 100 µM (inactive)
- GI50 [5]: > 100 µM (inactive)
- GI50 [6]: > 76.9 µM (inactive)
- GI50 [7]: > 100 µM (inactive)
- GI50 [8]: > 100 µM (inactive)
- GI50 [9]: > 100 µM (inactive)
- GI50 [10]: > 100 µM (inactive)
- GI50 [11]: > 100 µM (inactive)
- GI50 [12]: > 100 µM (inactive)
- GI50 [13]: > 100 µM (inactive)
- GI50 [14]: > 100 µM (inactive)
- GI50 [15]: > 100 µM (inactive)
- GI50 [16]: > 100 µM (inactive)
- GI50 [17]: > 100 µM (inactive)
- GI50 [18]: 80.5 µM (inactive)
- GI50 [19]: > 100 µM (inactive)
- GI50 [20]: > 100 µM (inactive)
- GI50 [21]: > 100 µM (inactive)
- GI50 [22]: 24.5 µM (inactive)
- GI50 [23]: > 100 µM (inactive)
- GI50 [24]: > 100 µM (inactive)
- GI50 [25]: > 100 µM (inactive)
- GI50 [26]: > 100 µM (inactive)
- GI50 [27]: > 82.6 µM
- GI50 [28]: > 100 µM (inactive)
- GI50 [29]: > 63.2 µM (inactive)
- GI50 [30]: > 100 µM (inactive)
- GI50 [31]: > 100 µM (inactive)
- GI50 [32]: 28.3 µM (inactive)
- GI50 [33]: > 100 µM (inactive)
- GI50 [34]: > 100 µM (inactive)
- GI50 [35]: > 100 µM (inactive)
- GI50 [36]: > 100 µM (inactive)
- GI50 [37]: > 100 µM (inactive)
- GI50 [38]: > 100 µM (inactive)
- GI50 [39]: > 63.8 µM (inactive)
- GI50 [40]: > 100 µM (inactive)
- GI50 [41]: > 100 µM (inactive)
- GI50 [42]: 65 µM (inactive)
- GI50 [43]: 58.7 µM (inactive)
- GI50 [44]: 1.87 µM (inactive)
- GI50 [45]: > 100 µM (inactive)
- GI50 [46]: > 100 µM (inactive)
- GI50 [47]: > 86.9 µM (inactive)
- GI50 [48]: > 100 µM (inactive)
- GI50 [49]: > 100 µM (inactive)
- GI50 [50]: > 100 µM (inactive)
- GI50 [51]: > 100 µM (inactive)
- GI50 [52]: > 100 µM (inactive)
- GI50 [53]: > 93.1 µM (inactive)
- GI50 [54]: > 100 µM (inactive)
- GI50 [55]: > 100 µM (inactive)
- GI50 [56]: > 100 µM (inactive)
- GI50 [57]: > 100 µM (inactive)

SMILES: CCOC(=O)C(=[N+]=[N-])C(=O)CN1C(=O)c2ccccc2C1=O
- GI50 [1]: > 100 µM (inactive)
- GI50 [2]: > 100 µM (inactive)
- GI50 [3]: > 100 µM (inactive)
- GI50 [4]: > 100 µM (inactive)
- GI50 [5]: > 100 µM (inactive)
- GI50 [6]: > 100 µM (inactive)
- GI50 [7]: > 100 µM (inactive)
- GI50 [58]: > 100 µM (inactive)
- GI50 [8]: > 100 µM (inactive)
- GI50 [9]: > 100 µM (inactive)
- GI50 [10]: > 100 µM (inactive)
- GI50 [11]: > 100 µM (inactive)
- GI50 [12]: > 100 µM (inactive)
- GI50 [13]: > 100 µM (inactive)
- GI50 [14]: > 100 µM (inactive)
- GI50 [15]: > 100 µM (inactive)
- GI50 [16]: > 100 µM (inactive)
- GI50 [17]: > 100 µM (inactive)
- GI50 [18]: > 100 µM (inactive)
- GI50 [19]: > 100 µM (inactive)
- GI50 [20]: > 100 µM (inactive)
- GI50 [21]: > 100 µM (inactive)
- GI50 [22]: > 100 µM (inactive)
- GI50 [23]: > 100 µM (inactive)
- GI50 [24]: > 100 µM (inactive)
- GI50 [25]: > 100 µM (inactive)
- GI50 [26]: > 100 µM (inactive)
- GI50 [27]: > 100 µM
- GI50 [28]: > 100 µM (inactive)
- GI50 [30]: > 100 µM (inactive)
- GI50 [31]: > 100 µM (inactive)
- GI50 [32]: > 100 µM (inactive)
- GI50 [35]: > 100 µM (inactive)
- GI50 [37]: > 100 µM (inactive)
- GI50 [38]: > 100 µM (inactive)
- GI50 [39]: > 100 µM (inactive)
- GI50 [40]: > 100 µM (inactive)
- GI50 [43]: > 100 µM (inactive)
- GI50 [45]: > 100 µM (inactive)
- GI50 [47]: > 100 µM (inactive)
- GI50 [48]: > 100 µM (inactive)
- GI50 [49]: > 100 µM (inactive)
- GI50 [50]: > 100 µM (inactive)
- GI50 [59]: > 100 µM (inactive)
- GI50 [51]: > 100 µM (inactive)
- GI50 [52]: > 100 µM (inactive)
- GI50 [53]: > 100 µM (inactive)
- GI50 [54]: > 100 µM (inactive)
- GI50 [55]: > 100 µM (inactive)
- GI50 [56]: > 100 µM (inactive)

SMILES: COc1c(OC)c(OC)c(-c2cc(=O)c3c(OC)c(OC)c(OC)c(OC)c3o2)c(OC)c1OC
- GI50 [1]: 30 µM (inactive)
- GI50 [2]: 50.5 µM (inactive)
- GI50 [4]: 34.5 µM (inactive)
- GI50 [5]: 32.7 µM (inactive)
- GI50 [6]: 40.2 µM (inactive)
- GI50 [7]: > 100 µM (inactive)
- GI50 [8]: 31.3 µM (inactive)
- GI50 [9]: 41.1 µM (inactive)
- GI50 [10]: 35 µM (inactive)
- GI50 [11]: 43.4 µM (inactive)
- GI50 [12]: 31.3 µM (inactive)
- GI50 [13]: 21.5 µM (inactive)
- GI50 [14]: 62.5 µM (inactive)
- GI50 [15]: 69.5 µM (inactive)
- GI50 [16]: 30.1 µM (inactive)
- GI50 [17]: 21.3 µM (inactive)
- GI50 [18]: 51.9 µM (inactive)
- GI50 [19]: 20.6 µM (inactive)
- GI50 [20]: 29.2 µM (inactive)
- GI50 [21]: 56.6 µM (inactive)
- GI50 [22]: 34.5 µM (inactive)
- GI50 [23]: 32.7 µM (inactive)
- GI50 [24]: 29.9 µM (inactive)
- GI50 [25]: 52.5 µM (inactive)
- GI50 [26]: 59.8 µM (inactive)
- GI50 [27]: 26.7 µM
- GI50 [28]: 16.3 µM (inactive)
- GI50 [29]: > 100 µM (inactive)
- GI50 [30]: 18.1 µM (inactive)
- GI50 [31]: 34.3 µM (inactive)
- GI50 [32]: 38 µM (inactive)
- GI50 [33]: 47 µM (inactive)
- GI50 [34]: 23.9 µM (inactive)
- GI50 [35]: 16.2 µM (inactive)
- GI50 [36]: 54.2 µM (inactive)
- GI50 [37]: 25.5 µM (inactive)
- GI50 [38]: 81.8 µM (inactive)
- GI50 [39]: 71.1 µM (inactive)
- GI50 [40]: 34.5 µM (inactive)
- GI50 [41]: 34 µM (inactive)
- GI50 [42]: 60.8 µM (inactive)
- GI50 [43]: 27.3 µM (inactive)
- GI50 [44]: 37.2 µM (inactive)
- GI50 [45]: 57.5 µM (inactive)
- GI50 [46]: 30.9 µM (inactive)
- GI50 [47]: 90.2 µM (inactive)
- GI50 [48]: 22.2 µM (inactive)
- GI50 [49]: 9.14 µM (inactive)
- GI50 [50]: 44 µM (inactive)
- GI50 [59]: 29.3 µM (inactive)
- GI50 [51]: 37.4 µM (inactive)
- GI50 [52]: 28.7 µM (inactive)
- GI50 [53]: 24.2 µM (inactive)
- GI50 [54]: 48.9 µM (inactive)
- GI50 [55]: 31.1 µM (inactive)
- GI50 [56]: 28.8 µM (inactive)
